Reference: patent US6913882B2, “Methods of screening for B cell activity modulators” (Affymetrix, Inc., priority 1999, dated 2005)
Like-named read-outs stand apart in the source and are kept apart here.

Columns and labels:
early response genes = test: B cell activation (HEL or anti-mu, 1 hr) with FK506, EGTA or PD98059, early response gene expression on arrays; assay type: cell-based, mice
Procedure: (§1) Splenic B cells from non-transgenic, Ig^HEL or sHEL/Ig^HEL transgenic mice were purified at room temperature in 1% bovine calf serum in RPMI. The spleen cells were stained with CD4, CD8 and Mac-1 FITC conjugated antibodies (Caltag) and depleted of T cells and macrophages with sheep anti-FITC magnetic beads (Perseptive Biosystems). The remaining cells were 85-95% B220 positive and were either lysed immediately (naive and tolerant cell preps) or stimulated in RPMI with 1% serum at 37° C. at 2-3×10^6 cells/ml. For stimulation experiments, HEL (Sigma) was used at 500 ng/ml, goat anti-mu (Jackson Labs) at 10 μg/ml, FK506 at 10 ng/ml, PD98059 (NEB) at 20 μM unless stated otherwise, ionomycin at 1 μM and EGTA at 3 mM. Cells were preincubated for 45 minutes with PD98059, 15 minutes with FK506 and 2 minutes with EGTA before addition of HEL or anti-mu. Mock stimulations were performed by addition of carrier alone for stimuli or inhibitors. At the end of the incubation, the cells were pelleted by centrifugation, resuspended in a minimal volume of medium (about 50 μl) by pipetting and lysed in 0.5-1 ml Trizol (Gibco BRL).
(§2) Trizol lysates were phenol-extracted and precipitated with isopropanol. Poly A+ RNA was purified with Oligotex (Qiagen). cDNA was synthesised with a Superscriptll cDNA synthesis kit (Gibco BRL) using a T7:(dT)24 oligo to prime the first strand and purified by phenol extraction and ethanol precipitation. […]
Each gene on the arrays was tiled as a collection of approximately 20 probe pairs. […] The perfect match—mismatch intensities (PM—MM) were calculated for each probe pair for each gene in each experiment. […] Positive t values associated with a probability of less than 0.1 were scored as increased, negative t values with a probability of less than 0.1 were scored as decreased. The number of increased and decreased probe pairs associated with each gene was determined and called npos and nneg respectively (of the approximately 20 probe pairs tiled for each gene). […] The probability of scoring npos or more of the total number of probe pairs was determined. […]

B cell = B cell death on activation in the presence of FK506; assay type: cell-based
Egr-1 = test: B cell activation with PD98059 titration, Egr-1 upregulation monitored on expression arrays; assay type: cell-based, mice
Procedure: as §1
as §2, with “precipitation. The cDNA was used as a template for in vitro transcription (IVT) using the Megascript system (Ambion) with the inclusion of biotinylated CTP and UTP.” for “precipitation.”
An intensity for each gene was calculated based on a trimmed mean of the PM—MM values. […]
In addition to NFAT, the ERK pathway is also activated in foreign or self antigen-stimulated cells. To determine downstream transcriptional effects of ERK, the effect of MEK, an ERK kinase, on B cell activation was determined. The MEK inhibitor PD98059 was titrated in B cell activation experiments and gene expression was monitored using one of the four arrays in the set (approximately 1600 genes). […]

Compound: O=C(O)CN(CCOCCOCCN(CC(=O)O)CC(=O)O)CC(=O)O [EGTA]
- effect on the transcript profile of stimulated naïve cells (early response genes; EGTA, FIG. 3C): essentially the same effect on the transcript profile as FK506

Compound: C=CC[C@@H]1/C=C(\C)C[C@H](C)C[C@H](OC)[C@H]2O[C@@](O)(C(=O)C(=O)N3CCCC[C@H]3C(=O)O[C@H](/C(C)=C/[C@@H]3CC[C@@H](O)[C@H](OC)C3)[C@H](C)[C@@H](O)CC1=O)[C@H](C)C[C@@H]2OC [FK506]
- B cell death on activation (B cell): increased B cell death

Compound: COc1cccc(-c2cc(=O)c3ccccc3o2)c1N [PD98059]
- sensitivity of induction of three transcripts (Egr-1, NAB2 and Gfi-1) upregulated by both self and foreign antigen (early response genes; FIG. 3D (PD98059), FIG. 3A (FK506)): sensitive
- sensitivity of regulation of other early response genes relative to Egr-1 (early response genes; PD98059 titration): less sensitive
- inhibition of upregulation of Egr-1 (Egr-1; 20 μM PD98059): totally inhibited
- IC50 (Egr-1; B cell activation, PD98059 titrated, read-out: concentration at which upregulation of Egr-1 was 50% inhibited): 5 to 10 µM
- IC50 (Egr-1; anti-mu stimulation of non-transgenic B cells, FIG. 3D, read-out: IC50 for inhibition of upregulation of Egr-1): ~5 µM
